Converted amounts (≈) assume the structure as drawn.
Assays:
HeLa S3 cells = experiment: Cell proliferation (MTT) assay, HeLa S3; conditions: for IC50 (cell viability, MTT): HeLa S3 cells, 48 h treatment; for IC50: Homo sapiens, HeLa S3, 48 h, read-out: IC50 (cell viability, MTT)
Description: (§1) A total number of 1.0×10^4 cells per well were seeded into a 96-well plate and incubated overnight at 37°C in 5% CO2. The next day, the cells were treated with a two-fold serial dilution of compounds. MTT assays were performed as described [27]. After 48 h, (4,5-dimethylthiazol-2-yl-2,5-diphenyltetrazoliumbromide) was added at 2 mg/ml. After 3 h of incubation at 37°C in 5% CO2, DMSO was added to dissolve the formazan crystals. The plates were then read in Chameleon multitechnology microplate reader (Hidex, Turku, Finland) at 570 nm absorbance. The ratio of the absorbance of treated cells to the absorbance of DMSO-treated control cells was determined as percentage cell viability.
(§2) To examine whether synthesized Ni(II) thiosemicarbazone ligands or Ni(II)-phosphine complexes were cytotoxic, we treated RAW264.7 (leukemic monocyte macrophage) and HeLa S3 (cervical adenocarcinoma) cells with these compounds for 48 h. The cell viability was determined with MTT assays [33].

RAW264.7 cells = experiment: Cell proliferation (MTT) assay, RAW264.7; conditions: for IC50 (cell viability, MTT): RAW264.7 cells, 48 h treatment; for IC50: Mus musculus, RAW264.7, 48 h, read-out: IC50 (cell viability, MTT)
Description: as §1, §2

ORAC antioxidant assay = format: physicochemical
Description: ORAC assay was performed based on reported procedures with slight modifications. Chemicals used such as fluorescein sodium salt, AAPH (2,2′-Azobis(2-methylpropionamidine) dihydrochloride), quercetin dehydrate and trolox ((±)-6-Hydroxy-2,5,7,8-tetramethylchromane-2-carboxylic acid) were purchased from Sigma-Aldrich. Compounds were diluted to a final concentration of 100 µg/ml, with total reaction volume of 200 µl. The assay was performed in a 96-well black microplate, with 25 µl of samples, standard (trolox), blank (solvent/PBS) or positive control (quercetin). Subsequently, 150 µl of working fluorescein solution was added to each well. The plate was incubated at 37°C for at least 5 min. Then, 25 µl of AAPH working solution was then added to the wells to make a total volume of 200 µl. […] Data were collected every 2 min for a duration of 2 h, and were analyzed by calculating the differences of area under fluorescence decay curve (AUC) of samples and blank. The values were expressed as Trolox equivalent (TE).
ROS may amplify inflammatory responses via up-regulation or activation of certain genes/transcription factors, such as NF-κB. […] Therefore, we conducted ORAC assays to investigate the antioxidant capacity of complex 5. The ORAC assay uses peroxyl radical as pro-oxidant and the antioxidant activity is quantified via area under curve (AUC). We included quercetin, a known antioxidant, as a positive control.

[1] = system: NF-κB p65 nuclear translocation; experiment: NF-κB p65 immunofluorescence staining, LPS-stimulated RAW264.7; format: cell-based; conditions: RAW264.7, 25 µg/ml pre-treatment 4 h, LPS 1 h
Description: NF-κB Activation Kits (Thermo Scientific) were used as previously described. Cells were pretreated with compounds for 4 h before being stimulated with lipopolysaccharide (LPS) ortumour necrosis factor α (TNFα) for 1 h. Cells were then fixed and permeabilized before probing with NF-κB p65 antibody for 1 h. Staining solution (containing DyLight 488 Goat Anti-Rabbit and Hoechst dye) was then added and incubated for 1 h. The plate with stained cells was evaluated using a Cellomics ArrayScan HCS Reader (Cellomics, PA, USA). Data were captured, extracted and analyzed with ArrayScan II Data Acquisition and Data Viewer version 3.0 (Cellomics).
NF-κB acts as a central mediator of inflammatory responses and compounds that inhibit NF-κB activation are potential anti-inflammatory agents. To evaluate this, we performed immunofluorescence staining of NF-κB p65. […] In response to LPS stimulation, NF-κB p65 translocated from cytoplasm into the nucleus, implying NF-κB activation (Figure 3). […] Moreover, we observed that complex 6–8 required higher concentration (>50 µg/ml) to elicit similar inhibitory effect (data not shown).
Figure 3 Effect of N4-substituteted thiosemicarbazone complexes on LPS-induced NF-κB nuclear transloction in RAW264.7 macrophage cells. Staining of Hoechst (nucleus) and NF-κB in RAW264.7 cells. […]

[2] = system: carrageenan-induced paw edema; experiment: Carrageenan-induced paw edema mouse model; format: in vivo, C57BL/6 mice; conditions: 2.0 mg/kg i.p., 1 h after carrageenan; control 7.3±0.8 mm
Description: Male C57BL/6 mice at age 8–12 weeks old were from Jackson Laboratories, USA. Mice were administrated intraperitoneally (i.p.) with two different doses of complex 5 (2.5 mg/kg and 5 mg/kg). Negative control groups were i.p. injected with 200 µl of vehicle (50% v/v ethanol). A standard drug 2 mg/kg dexamethasone (Sigma) was included in the study. After 1 h, paw edema was induced by injecting 50 µl of 1% carrageenan (Sigma) through the plantar tissue at the right hind paw of each mouse. The thickness of right paw of each mouse was measured at 1, 3 and 5 h after carrageenan was administered. Four animals per group were tested (n = 4). Quantification of right hind paw thickness were analyzed for statistical significance using Student's t-test. Animals were housed in individually ventilated cages in specific pathogen free facility, Animal Experimental Unit, University of Malaya. All efforts were made to minimize animal suffering and the number of animals used. At the end of the experiment, mice were euthanized by CO2 asphyxiation. Animal work was approved by the Faculty of Medicine Animal Care and Use Committee (FOMIACUC) at University of Malaya and reported according to ARRIVE guidelines.
To test the in vivo inhibitory effect of complex 5 on inflammation, we administrated two doses of complex 5 (2.5 mg/kg and 5.0 mg/kg) into C57BL/6 wild type mice through i.p. injection. For a positive control, we performed i.p. injection of 2.0 mg/kg dexamethasone into the mice. After 1 h, paw edema in the mice was induced by injecting 1% carrageenan to the right hind paw. The paw sizes were measured at 1, 3 and 5 h after edema induction. The edema formation at the mice paw was due to inflammatory response causing the accumulation of histamine, serotonin, prostaglandin and other secreted inflammatory mediators.
Male C57BL/6 mice at age of 8-12 weeks old were non-injected or injected i.p. with 2.5 mg/kg or 5.0 mg/kg complex 5, whereas for positive controls, mice were injected i.p. with 2.0 mg/kg dexamethasone. After 1 h, acute inflammation was induced in the right hind paw of each mice by injecting 50 µl of carrageenan. The size of the paw were measured after (A) 1 h or, (B) 1, 3 and 5 h post carrageenan injection. Shown were mean ±SD (n = 4). Statistical analysis was performed with Student's t-test.

## CCNC1=N[N+]2=Cc3cccc(O)c3[O][Ni-2]2([P+](c2ccccc2)(c2ccccc2)c2ccccc2)[S]1 (stereo not drawn) [complex 8]
HeLa S3 cells
  IC50 (cell viability, MTT): >100 µg/mL
RAW264.7 cells
  IC50 (cell viability, MTT): 56.31 ± 3.86 µg/mL
ORAC antioxidant assay
  Antioxidant capacity, Trolox equivalent: 13.34±1.49 µM TE per 100 µM

## NC(=S)N/N=C/c1cccc(O)c1O [ligand 1]
[1]
  Inhibition of LPS-mediated NF-κB p65 nuclear translocation: did not affect NF-κB translocation
HeLa S3 cells
  IC50: > 100 µg/mL
RAW264.7 cells
  IC50: 22.8 ± 1.67 µg/mL (≈ 108 µM)
ORAC antioxidant assay
  Antioxidant capacity, Trolox equivalent: 5.18±0.05 µM TE per 100 µM

## O=c1c(O)c(-c2ccc(O)c(O)c2)oc2cc(O)cc(O)c12 [Quercetin, quercetin dehydrate, reference compound]
ORAC antioxidant assay
  Antioxidant capacity, Trolox equivalent: 24.41±0.35 µM TE per 100 µM

## C[C@@H]1C[C@H]2[C@@H]3CCC4=CC(=O)C=C[C@]4(C)[C@@]3(F)[C@@H](O)C[C@]2(C)[C@@]1(O)C(=O)CO [dexamethasone, reference compound]
[2]
  Paw size: 4.6±0.4 mm

## CCNC(=S)N/N=C/c1cccc(O)c1O [ligand 4]
HeLa S3 cells
  IC50: 87.2 ± 1.81 µg/mL (≈ 364 µM)
RAW264.7 cells
  IC50: 19.4 ± 1.07 µg/mL (≈ 80.9 µM)
ORAC antioxidant assay
  Antioxidant capacity, Trolox equivalent: 7.54±1.61 µM TE per 100 µM

## Oc1cccc(/C=N/NC(=S)Nc2ccccc2)c1O [ligand 3]
HeLa S3 cells
  IC50: > 100 µg/mL
RAW264.7 cells
  IC50: 31.5 ± 1.82 µg/mL (≈ 110 µM)
ORAC antioxidant assay
  Antioxidant capacity, Trolox equivalent: 9.71±0.77 µM TE per 100 µM

## CNC(=S)NN=Cc1cccc(O)c1[O-].[Cl-].[Ni+2].c1ccc(P(c2ccccc2)c2ccccc2)cc1 [complex 6, (6-Hydroxy-2-{[2-(N-methylcarbamothiolyl)hydrazin-1-ylidene-[kappa]2N1,S]methyl}phenolato-[kappa]O1)(triphenylphosphane-[kappa]P)nickel(II) chloride]
HeLa S3 cells
  IC50 (cell viability, MTT): 77.55 ± 1.56 µg/mL
RAW264.7 cells
  IC50 (cell viability, MTT): 37.73 ± 3.62 µg/mL
ORAC antioxidant assay
  Antioxidant capacity, Trolox equivalent: 15.65±0.89 µM TE per 100 µM

## Oc1cccc2c1[O][Ni-2]1([P+](c3ccccc3)(c3ccccc3)c3ccccc3)[S]C(Nc3ccccc3)=N[N+]1=C2 (stereo not drawn) [complex 7]
HeLa S3 cells
  IC50 (cell viability, MTT): >100 µg/mL
RAW264.7 cells
  IC50 (cell viability, MTT): 42.44 ± 4.17 µg/mL
ORAC antioxidant assay
  Antioxidant capacity, Trolox equivalent: 9.37±1.14 µM TE per 100 µM

## CNC(=S)N/N=C/c1cccc(O)c1O [ligand 2]
HeLa S3 cells
  IC50: > 100 µg/mL
RAW264.7 cells
  IC50: 27.8 ± 0.96 µg/mL (≈ 124 µM)
ORAC antioxidant assay
  Antioxidant capacity, Trolox equivalent: 8.23±0.43 µM TE per 100 µM
